According to US8859559B2, “Substituted pyrazines and their use in the treatment of disease” (Boehringer Ingelheim International GmbH, priority 2011, dated 2014):

Molecular target: T1, ENaC (Epithelial Sodium Channel) (Mus musculus, UniProt Q61180+Q9WU38+Q9WU39)
T1 construct: Mouse kidney M-1 cells were cultivated in DMEM; endogenous in cells; host or cells: Mouse kidney M-1 cells (dexamethasone-treated, on transwell filters)
T1 sequence (Q61180 1-699): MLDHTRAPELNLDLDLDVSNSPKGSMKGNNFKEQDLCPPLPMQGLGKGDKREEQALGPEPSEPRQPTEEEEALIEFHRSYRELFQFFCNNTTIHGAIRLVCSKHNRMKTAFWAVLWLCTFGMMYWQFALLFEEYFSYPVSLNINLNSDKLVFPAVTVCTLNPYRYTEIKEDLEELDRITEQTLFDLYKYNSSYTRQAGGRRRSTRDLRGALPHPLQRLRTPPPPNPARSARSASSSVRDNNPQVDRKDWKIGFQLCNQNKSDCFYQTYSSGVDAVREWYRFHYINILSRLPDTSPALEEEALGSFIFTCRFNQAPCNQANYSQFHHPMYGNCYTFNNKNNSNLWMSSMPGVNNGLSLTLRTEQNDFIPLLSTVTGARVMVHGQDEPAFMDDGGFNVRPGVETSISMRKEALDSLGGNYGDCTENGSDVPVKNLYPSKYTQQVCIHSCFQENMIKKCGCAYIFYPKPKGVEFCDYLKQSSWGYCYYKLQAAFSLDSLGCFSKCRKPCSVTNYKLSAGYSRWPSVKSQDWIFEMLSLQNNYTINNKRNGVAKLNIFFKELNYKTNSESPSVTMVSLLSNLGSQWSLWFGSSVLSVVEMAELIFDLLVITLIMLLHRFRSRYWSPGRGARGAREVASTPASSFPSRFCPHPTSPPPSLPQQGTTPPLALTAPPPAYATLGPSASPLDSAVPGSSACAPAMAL
T1 sequence (Q9WU38 1-638): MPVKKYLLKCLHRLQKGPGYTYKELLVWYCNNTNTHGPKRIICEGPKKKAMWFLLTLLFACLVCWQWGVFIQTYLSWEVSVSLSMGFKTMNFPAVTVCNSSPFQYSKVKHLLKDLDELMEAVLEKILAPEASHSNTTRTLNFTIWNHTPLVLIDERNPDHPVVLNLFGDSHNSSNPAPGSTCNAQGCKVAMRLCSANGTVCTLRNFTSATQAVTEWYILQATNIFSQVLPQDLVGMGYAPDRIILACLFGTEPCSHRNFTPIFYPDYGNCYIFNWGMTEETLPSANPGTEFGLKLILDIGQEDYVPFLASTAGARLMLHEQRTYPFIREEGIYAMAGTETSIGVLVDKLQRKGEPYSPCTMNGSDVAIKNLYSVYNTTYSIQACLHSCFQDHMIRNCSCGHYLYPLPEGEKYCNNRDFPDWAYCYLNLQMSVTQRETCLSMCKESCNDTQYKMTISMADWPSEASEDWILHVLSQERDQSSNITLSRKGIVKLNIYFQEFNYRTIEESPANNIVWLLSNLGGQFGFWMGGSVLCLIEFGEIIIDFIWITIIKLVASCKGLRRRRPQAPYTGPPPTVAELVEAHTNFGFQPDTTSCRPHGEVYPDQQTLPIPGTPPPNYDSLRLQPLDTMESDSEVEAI
T1 sequence (Q9WU39 1-655): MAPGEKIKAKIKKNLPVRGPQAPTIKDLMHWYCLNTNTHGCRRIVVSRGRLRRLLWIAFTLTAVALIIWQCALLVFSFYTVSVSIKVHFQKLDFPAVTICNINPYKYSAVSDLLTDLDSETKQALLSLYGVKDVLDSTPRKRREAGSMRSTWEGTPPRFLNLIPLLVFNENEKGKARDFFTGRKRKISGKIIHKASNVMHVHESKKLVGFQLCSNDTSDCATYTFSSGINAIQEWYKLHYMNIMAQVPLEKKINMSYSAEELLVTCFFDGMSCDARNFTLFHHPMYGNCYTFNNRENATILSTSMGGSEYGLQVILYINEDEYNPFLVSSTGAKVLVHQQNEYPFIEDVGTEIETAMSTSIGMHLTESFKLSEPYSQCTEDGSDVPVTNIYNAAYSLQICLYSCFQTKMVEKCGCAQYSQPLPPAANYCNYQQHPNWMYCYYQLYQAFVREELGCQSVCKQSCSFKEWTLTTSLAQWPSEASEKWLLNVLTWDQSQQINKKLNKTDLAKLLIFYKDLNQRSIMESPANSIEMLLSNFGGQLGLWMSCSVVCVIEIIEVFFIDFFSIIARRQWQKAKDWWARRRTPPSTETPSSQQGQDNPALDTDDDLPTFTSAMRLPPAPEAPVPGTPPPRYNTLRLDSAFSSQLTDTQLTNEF
Assay: Ussing chamber: inhibition of amiloride sensitive short circuit current (I_sc) in M-1 cells
Format: cell-based
Settings: mouse kidney M-1 cells
Procedure, shortened: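 Mouse kidney M-1 cells grown 10-12 days on transwell filters with 5 μM dexamethasone; I_sc recorded under voltage clamp at 37° C in Caco-2 transport buffer. Compounds added apically at 3 μM or 1-3-10 μM; 3 μM apical amiloride added at the end defines the amiloride-sensitive current; results as % inhibition of amiloride effect or IC50.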

| IC50 [nM] | SMILES |
| --- | --- |
| 18 | NC(=NC(=O)c1nc(Cl)c(N)nc1N)NC1CCN(Cc2ccc(-n3cc(CCC(=O)N(CCOCCOCCO)CCOCCOCCO)nn3)cc2)CC1 [Example 3.16] |
| 37 | NC(=NC(=O)c1nc(Cl)c(N)nc1N)NC1CCN(Cc2cccc(OCC(=O)O)c2)CC1 [Example 8.15] |
| 9 | CN(Cc1cn(CCc2ccc(CN3CCC(N/C(N)=N/C(=O)c4nc(Cl)c(N)nc4N)CC3)cc2)nn1)C(=O)CCN [Example 4.1] |
| 12 | NC(=NC(=O)c1nc(Cl)c(N)nc1N)NC1CCN(Cc2ccc(OCc3cn(CCOCCOCCOCCO)nn3)cc2)CC1 [Example 3.21] |
| 8 | NC(=NC(=O)c1nc(Cl)c(N)nc1N)NC1CCN(Cc2ccc(-c3cn(CCOCCOCCOCCO)nn3)cc2)CC1 [Example 3.26] |

Continued, compound first:

| SMILES | IC50 [nM] |
| --- | --- |
| N/C(=N\C(=O)c1nc(Cl)c(N)nc1N)NC1CCN(Cc2ccc(C(=O)O)cc2)CC1 [Example 1.51] | 23 |
| N=C(N)c1ccc(CN2CCC(NC(N)=NC(=O)c3nc(Cl)c(N)nc3N)CC2)cc1 [Example 1.55] | 2 |
| COCCOc1ccc(C(=O)NCCOCCOCCNC(=O)c2ccc(CN3CCC(NC(N)=NC(=O)c4nc(Cl)c(N)nc4N)CC3)cc2)cc1 [Example 1.49] | 6 |
| COc1cc(CN2CCC(NC(N)=NC(=O)c3nc(Cl)c(N)nc3N)CC2)cc(C(=O)O)c1 [Example 1.64] | 17 |
| [N-]=[N+]=NCCc1ccc(CN2CCC(NC(N)=NC(=O)c3nc(Cl)c(N)nc3N)CC2)cc1 [Example 1.3] | 4 |
| COC(=O)COc1ccc(CN2CC(NC(N)=NC(=O)c3nc(Cl)c(N)nc3N)C2)cc1 [Example 1.66] | 261 |
| COC(=O)CCc1ccc(CN2CCC(NC(N)=NC(=O)c3nc(Cl)c(N)nc3N)CC2)cc1 [Example 1.45] | 10 |
| N#Cc1ccc(OCCN2CCC(NC(N)=NC(=O)c3nc(Cl)c(N)nc3N)CC2)cc1 [Example 1.21] | 11 |
